US3970651A, “Crystalline cephalosporin derivative” (priority 1974, dated 1976)
In brackets after ≈: the same amount, converted by molar mass. Several values for one entry are separate records, joined by “and”; a condition that tells them apart may be missing. Equal entries are not always repeated. Where two headings read alike, the source gives them in different places.

What was measured:
[1] = system: S. aureus 209P (A.T.C.C. 6538P); experiment: Bioassay, turbidometric; format: cell-based
[2] = system: bacterial infections; experiment: In vitro antibacterial potency and spectrum; format: cell-based
[3] = system: bacterial infections; experiment: In vivo antibacterial activity
[4] = for Behaviour when suspended in water: aqueous suspension
[5] = Water solubility; format: physicochemical; settings: in water at 23° C.
[6] = in vivo; settings: dog, po, 30 mg/kg
Method: Three beagle dogs (mean weight of 8.2 ± 0.4 kg.) were administered 200 mesh 7-[D-α-amino-α-(p-hydroxyphenyl)acetamido]-3-(1,2,3-triazol-5-ylthiomethyl)-3-cephem-4-carboxylic acid propylene glycolate (bioassay 820 mcg./mgm.) orally at doses of 30 mg. of activity/kg. in hard gelatin capsules. All doses and concentrations reported herein are in terms of the amphoteric material and were corrected for differences in biopotency.

[7] = Heat stability / loss of bioactivity of the solid on storage at elevated temperatures
[8] = allowance made for inert propylene glycol

## CO.N[C@@H](C(=O)NC1C(=O)N2C(C(=O)O)=C(CSc3cnn[nH]3)CS[C@H]12)c1ccc(O)cc1 (stereo partly drawn) [BL-S640 methanolate, 7-[D-α-amino-α-(p-hydroxyphenyl)acetamido]-3-(1,2,3-triazol-5-ylthiomethyl)-3-cephem-4-carboxylic acid Methanolate]
[1]
  Bio-assay: 850 to 900 µg/mg

## N[C@@H](C(=O)NC1C(=O)N2C(C(=O)O)=C(CSc3c[nH]nn3)CSC12)c1ccc(O)cc1 (stereo partly drawn) [BL-S640 mono-methanolate]
[1]
  Bio-assay: 930-960 units/mg.

## C=CC.N[C@@H](C(=O)NC1C(=O)N2C(C(=O)O)=C(CSc3cnn[nH]3)CS[C@H]12)c1ccc(O)cc1.O=C(O)CO (stereo partly drawn) [BL-S640 mono-propylene glycolate, 7-[D-α-amino-α-(p-hydroxyphenyl)acetamido]-3-(1,2,3-triazol-5-ylthiomethyl)-3-cephem-4-carboxylic acid mono-propylene glycolate]
[1]
  Bio-assay: 865 µg/mg
[1]; 15.6% 1,2-propylene glycol, 0.3% water
  calculated potency: 865 µg/mg
[2]; [8]
  Potency and spectrum in vivo and in vitro versus the zwitterion product: substantially the same potency and spectrum in vivo and in vitro
[3]; [8]
  Potency and spectrum in vivo versus the zwitterion product: substantially the same potency and spectrum in vivo and in vitro
[4]
  Behaviour when suspended in water: does not lose biological activity or crystallinity and does not oil, suspend unevenly, clump, settle out or become tacky

## N[C@@H](C(=O)NC1C(=O)N2C(C(=O)O)=C(CSc3c[nH]nn3)CSC12)c1ccc(O)cc1 (stereo partly drawn) [BL-S640 propylene glycolate, 7-[D-α-amino-α-(p-hydroxyphenyl)acetamido]-3-(1,2,3-triazol-5-ylthiomethyl)-3-cephem-4-carboxylic acid 1,2-propylene glycolate]
[1]; 200 mesh lot dosed to dogs
  bioassay: 820 mcg./mgm.
[1]; bioassay standard, 16.7% 1,2-propylene glycol, 0.3% water
  assigned potency: 820 mcg./mgm.
[1]; capsule blend
  potency of composite blend: 834 µg/mg
[1]; listed as 1,2-propylene glycolate
  Bio-assay: 800 to 850 µg/mg
[1]; listed as propylene glycolate
  Bio-assay: 750 to 790 µg/mg and 800 to 860 µg/mg
[5]
  solubility: ~10 mg/mL (≈ 21.6 mM)
[6]
  concentration at 0.08 h: 0.04 µg/mL
  concentration at 0.25 h: 0.3 ± 0.1 µg/mL
  concentration at 0.5 h: 5.9 ± 2 µg/mL
  concentration at 1.05 h: 8.4 µg/mL
  concentration at 1.5 h: 17.7 ± 2 µg/mL
  concentration at 2 h: 18.7 ± 0.9 µg/mL
  concentration at 3 h: 13.7 ± 1.2 µg/mL
  concentration at 4 h: 8.4 ± 1.3 µg/mL
  concentration at 6 h: 3.2 ± 0.4 µg/mL
  concentration at 8 h: 1.6 ± 0.2 µg/mL
  half-life: ~1.36 h
[2]; in vitro, versus Ser. No. 318,340
  In vitro potency and spectrum of activity: exhibits the potency and spectrum of activity reported in the above-referenced application Ser. No. 318,340 in a qualitative sense and usually also quantitatively except when it is possible to observe slightly less activity due to its content of the biologically inert propylene glycol
[3]; dosed on a potency basis in terms of the zwitterion
  In vivo results: substantially the same
[4]; listed as propylene glycolate
  Behaviour when suspended in water: does not lose biological activity, lose crystallinity, suspend unevenly, oil, clump, settle out or become tacky
[7]; 56°C., one month, usual stringent test conditions
  Loss of bioactivity on storage as a solid: no more than ten
[7]; solid
  degraded at 24 h: < 6%
  degraded at 48 h: < 12%
  degraded at 720 h: < 10%

## N[C@@H](C(=O)NC1C(=O)N2C(C(=O)O)=C(CSc3cnn[nH]3)CS[C@H]12)c1ccc(O)cc1 (stereo partly drawn) [BL-S640, 7-[D-α-amino-α-(p-hydroxyphenyl)acetamido]-3-(1,2,3-triazol-5-ylthiomethyl)-3-cephem-4-carboxylic acid]
[4]; pH 7
  Degradation in water at alkaline pH: degrades very rapidly, as by loss of the thiol moiety

## N[C@@H](C(=O)NC1C(=O)N2C(C(=O)O)=C(CSc3c[nH]nn3)CSC12)c1ccc(O)cc1 (stereo partly drawn) [ethanolate]
[4]
  Behaviour when suspended in water: gradually lost its ethanol to change into a solid tacky form which lost crystallinity, did not suspend evenly and gummed in time
